Assay results taken from patent publication US4505889A, “Protracted release microbiocidal article for aqueous systems” (Rohm and Haas Company, priority 1982, dated 1985).
≈ marks a conversion by molar mass, not a printed value.

Experiments:
[1] = physchem; settings: water
[2] = Release of active ingredient from solid Celite 545 composition stirred in deionized water, followed by ultraviolet spectroscopy; type: physicochemical; settings: for time required to reach a saturated solution: solid composition on Celite 545 in deionized water; for Concentration in Solution at Elapsed Time: 1.28 g of 7% composition on Celite 545 in 800 ml deionized water, total release = 112 ppm
Description: To 13.28 g. of Celite®545 in each of three glass bottles was added 1 g. of the following isothiazolones in 20 ml. of methanol:
Each mixture was then stirred by hand with a spatula until it appeared to be uniformly mixed and free-flowing. Air drying, to remove methanol, affords solid product, 14.28 g., containing 7 weight % of active ingredient.
1.28 g. of each of the resulting solid microbiocidal compositions was stirred in 800 ml. of deionized water. The release of active ingredient was followed by analysis of the supernatant water by ultraviolet spectroscopy. Total release of active ingredient would give 112 ppm.

[3] = Rate of release and concentration of active ingredient from sealed cellulose film bags into deionized water, followed by ultraviolet spectroscopy; type: physicochemical; settings: 1.28 g of 7% composition on Celite 545 in sealed 3-mil cellulose bag, 800 ml deionized water, complete release = 112 ppm
Source text: There was sealed in bags of 3-mil cellulose film (3.5 in.^2 surface area) 1.28 g. of each of the three compositions prepared in Example 1 containing compounds A, B, and C, respectively. For comparison, 1.28 g. of a 7% active ingredient solid composition of Kathon®886 (a 3:1 weight ratio blend of 5-chloro-2-methyl-3-isothiazolone and 2-methyl-3-isothiazolone with 15 weight % of Mg(NO3)2 and 9 weight % of MgCl2 in aqueous solution containing 14% active ingredient available from the Rohm and Haas Company) absorbed on Celite®545 was sealed in a bag of 3-mil cellulose film (3.5 in.^2 surface area). The rate of release and concentration of active ingredient from the sealed bags into 800 ml. of deionized water was followed by ultraviolet spectroscopy. Complete release of active ingredient from each sample would give 112 ppm.

[4] = Water solubility of the isothiazolones; settings: for solubility: water

solubility ([4]; Water Solubility, Example 1 table) [µg/mL] | solubility ([4]; Water Solubility, Example 3 table head) [µg/mL] | Compound | solubility [1] [µg/mL] | time required to reach a saturated solution [2] | Concentration/Rate of Release ([3]; 1 day) [ppm] | Concentration/Rate of Release ([3]; 5 days) [ppm] | Concentration in Solution at Elapsed Time ([2]; 0.75 hr.) [ppm] | Concentration in Solution at Elapsed Time ([2]; 3.0 hr.) [ppm] | Concentration in Solution at Elapsed Time ([2]; 66.0 hr.) [ppm] | Concentration in Solution at Elapsed Time ([2]; 23.0 hr.) [ppm] | Water Solubility ([4]; Example 3 table head) [ppm] | solubility [4] [µg/mL]
– | – | CCCCCCCCn1sccc1=O [A, 2-octyl-3-isothiazolone] | 500 (≈ 2340 µM) | less than 1 hours | 27 | 82 | – | – | – | – | – | –
40 (≈ 159 µM) | 42 (≈ 167 µM) | O=c1c(Cl)c(Cl)sn1C1CCCCC1 [B, 4,5-dichloro-2-cyclohexyl-3-isothiazolone] | – | 1 to 3 h | 5 | 11 | 27 | 39 | 39 | – | – | –
– | – | CCCCCCCCn1sc(Cl)c(Cl)c1=O [Compound C, 4,5-dichloro-2-octyl-3-isothiazolone] | – | – | 0.4 | 1.7 | 7 | 10 | 14 | 14 | 14 | 14 (≈ 49.6 µM)
